Results reported in PubChem BioAssay (NCI).
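Each compound was tested at five concentrations against cells in 96-well plates for 48 hours. TGI is the concentration that stops growth completely.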

What was measured:
Test in all cases: NCI tumour cell line growth inhibition, 48 h
[1] = tested on: UACC-62 melanoma
[2] = tested on: SF-539 CNS
[3] = tested on: T-47D breast
[4] = tested on: K-562 leukemia
[5] = tested on: SK-MEL-2 melanoma
[6] = tested on: HT29 colon
[7] = tested on: 786-0 renal
[8] = tested on: CAKI-1 renal
[9] = tested on: SF-295 CNS
[10] = tested on: SW-620 colon
[11] = tested on: IGROV1 ovarian
[12] = tested on: MDA-MB-435
[13] = tested on: NCI/ADR-RES ovarian
[14] = tested on: SK-MEL-5 melanoma
[15] = tested on: PC-3 prostate
[16] = tested on: MOLT-4 leukemia
[17] = tested on: EKVX NSCLC
[18] = tested on: HCT-116 colon
[19] = tested on: NCI-H460 lung
[20] = tested on: A498 renal
[21] = tested on: M14 melanoma
[22] = tested on: UACC-257 melanoma
[23] = tested on: OVCAR-8 ovarian
[24] = tested on: HL-60(TB) leukemia
[25] = tested on: HCC-2998 colon
[26] = tested on: HOP-62 NSCLC
[27] = tested on: MALME-3M melanoma
[28] = tested on: SN12C renal
[29] = tested on: OVCAR-3 ovarian
[30] = tested on: SF-268 CNS
[31] = tested on: SNB-75 CNS
[32] = tested on: HOP-92 NSCLC
[33] = tested on: COLO 205 colon
[34] = tested on: NCI-H23 lung
[35] = tested on: SK-OV-3 ovarian
[36] = tested on: MDA-N
[37] = tested on: KM12 colon
[38] = tested on: A549 NSCLC
[39] = tested on: HS 578T breast
[40] = tested on: DU-145 prostate
[41] = tested on: NCI-H226 lung
[42] = tested on: SK-MEL-28 melanoma
[43] = tested on: MDA-MB-231 breast
[44] = tested on: LOX IMVI melanoma
[45] = tested on: SNB-19 CNS
[46] = tested on: CCRF-CEM leukemia
[47] = tested on: HCT-15 colon
[48] = tested on: TK-10 renal
[49] = tested on: UO-31 renal
[50] = tested on: OVCAR-4 ovarian
[51] = tested on: OVCAR-5 ovarian
[52] = tested on: MCF7 breast
[53] = tested on: NCI-H522 lung
[54] = tested on: U251 CNS
[55] = tested on: ACHN renal
[56] = tested on: RXF 393 renal
[57] = tested on: SR leukemia

## Cc1[nH]c(=O)nc(N(CCO)/N=C/c2ccc(Cl)cc2)c1C(=O)Nc1ccc(Cl)cc1
[1]
  TGI: > 100 µM
[2]
  TGI: > 100 µM
[3]
  TGI: > 100 µM
[4]
  TGI: > 100 µM
[5]
  TGI: > 100 µM
[6]
  TGI: > 100 µM
[7]
  TGI: > 100 µM
[8]
  TGI: > 100 µM
[9]
  TGI: > 100 µM
[10]
  TGI: > 100 µM
[11]
  TGI: > 100 µM
[12]
  TGI: > 100 µM
[13]
  TGI: > 100 µM
[14]
  TGI: > 100 µM
[15]
  TGI: > 100 µM
[16]
  TGI: > 100 µM
[17]
  TGI: > 100 µM
[18]
  TGI: > 100 µM
[19]
  TGI: > 100 µM
[20]
  TGI: > 100 µM
[21]
  TGI: > 100 µM
[22]
  TGI: > 100 µM
[23]
  TGI: > 100 µM
[24]
  TGI: > 100 µM
[25]
  TGI: > 100 µM
[26]
  TGI: > 100 µM
[27]
  TGI: 68.3 µM
[28]
  TGI: > 100 µM
[29]
  TGI: > 100 µM
[30]
  TGI: > 100 µM
[31]
  TGI: > 100 µM
[32]
  TGI: > 100 µM
[33]
  TGI: > 100 µM
[34]
  TGI: > 100 µM
[35]
  TGI: > 100 µM
[36]
  TGI: > 100 µM
[37]
  TGI: > 100 µM
[38]
  TGI: > 100 µM
[39]
  TGI: > 100 µM
[40]
  TGI: > 100 µM
[41]
  TGI: > 100 µM
[42]
  TGI: > 100 µM
[43]
  TGI: > 100 µM
[44]
  TGI: > 100 µM
[45]
  TGI: > 100 µM
[46]
  TGI: > 100 µM
[47]
  TGI: > 100 µM
[48]
  TGI: > 100 µM
[49]
  TGI: > 100 µM
[50]
  TGI: > 100 µM
[51]
  TGI: > 100 µM
[52]
  TGI: > 100 µM
[53]
  TGI: > 100 µM
[54]
  TGI: 69.2 µM
[55]
  TGI: > 100 µM
[56]
  TGI: 76.3 µM

## O=[p+]1c2ccccc2[nH]c2ccccc21
[1]
  TGI: > 100 µM
[2]
  TGI: > 100 µM
[3]
  TGI: > 100 µM
[4]
  TGI: > 100 µM
[5]
  TGI: > 100 µM
[6]
  TGI: > 100 µM
[7]
  TGI: > 100 µM
[8]
  TGI: > 100 µM
[9]
  TGI: > 100 µM
[10]
  TGI: > 100 µM
[11]
  TGI: > 100 µM
[12]
  TGI: > 100 µM
[13]
  TGI: > 100 µM
[14]
  TGI: > 100 µM
[15]
  TGI: > 100 µM
[16]
  TGI: > 100 µM
[17]
  TGI: > 100 µM
[18]
  TGI: > 100 µM
[19]
  TGI: > 100 µM
[20]
  TGI: > 100 µM
[21]
  TGI: > 100 µM
[22]
  TGI: > 100 µM
[23]
  TGI: > 100 µM
[24]
  TGI: > 100 µM
[25]
  TGI: > 100 µM
[26]
  TGI: > 100 µM
[27]
  TGI: > 100 µM
[28]
  TGI: > 100 µM
[29]
  TGI: > 100 µM
[30]
  TGI: > 100 µM
[31]
  TGI: > 100 µM
[32]
  TGI: > 100 µM
[33]
  TGI: > 100 µM
[34]
  TGI: > 100 µM
[35]
  TGI: > 100 µM
[36]
  TGI: > 100 µM
[37]
  TGI: > 100 µM
[38]
  TGI: > 100 µM
[40]
  TGI: > 100 µM
[41]
  TGI: > 100 µM
[42]
  TGI: > 100 µM
[43]
  TGI: > 100 µM
[44]
  TGI: > 100 µM
[45]
  TGI: > 100 µM
[46]
  TGI: > 100 µM
[57]
  TGI: > 100 µM
[47]
  TGI: > 100 µM
[48]
  TGI: > 100 µM
[50]
  TGI: > 100 µM
[51]
  TGI: > 100 µM
[52]
  TGI: > 100 µM
[53]
  TGI: > 100 µM
[54]
  TGI: > 100 µM
[55]
  TGI: > 100 µM
[56]
  TGI: > 100 µM
